Measurements taken from patent publication US8088941B2, “Glycogen synthase kinase-3 inhibitors” (Tel Aviv University Future Technology Development L.P., priority 2001, dated 2012).
Structures can show the parent of a compound that is named as a salt. Where two headings read alike, the source gives them in different places. Each block holds one molecule with its values, some of them ahead of it.

Assays:
[1] = molecular target: T1, recombinant rabbit GSK-3β (Oryctolagus cuniculus, UniProt G1T8E2); test: In vitro GSK-3 inhibition assay with PGS-1 peptide substrate; format: biochemical; conditions: for GSK-3 inhibition activity: preliminary inhibition assay, FIG. 5
Protocol: (§1) In vitro inhibition assays: Purified recombinant rabbit GSK-3β (Eldar-Finkelman et al., 1996) was incubated with peptide substrate PGS-1 ([…](p)EDEEE) (SEQ ID NO:1) or peptide substrate p9CREB (SEQ ID NO:2) and with phenyl phosphate, pyridoxal phosphate (P-5-P), GSC-1, GSC-2, GSC-3, GSC-4, GSC-5, GSC-6, GSC-7 or GSC-21 (structural formulas are depicted in FIG. 3), at indicated concentrations. The reaction mixture included Tris 50 mM (pH=7.3), 10 mM MgAc, ^32P[γ-ATP] (100 μM), 0.01% β-mercaptoethanol, and was incubated for 10 minutes at 30° C. Reactions were spotted on phosphocellulose paper (p81), washed with 100 mM phosphoric acid, and counted for radioactivity (as described in Eldar-Finkelman et al., 1996).
In vitro inhibition assays: In a preliminary inhibition assay, the GSK-3 inhibition activity of the known compounds phenyl phosphate, pyridoxal phosphate, GSC-1, GSC-2 and GSC-3 was tested as described hereinabove.
(§2) In an additional inhibition assay, the GSK-3 inhibition activity of GSC-1, GSC-2, GSC-3, GSC-4, and GSC-21 was tested. The ability of GSK-3 to phosphorylate PGS-1 peptide substrate was measured in the presence of indicated concentrations of these compounds. The results, presented in FIG. 6, represent the percentage of GSK-3 activity as compared with a control incubation without inhibitors and are mean of 2 independent experiments±SEM, where each point was assayed in triplicate.

CDK-2 = CDK-2 (Homo sapiens, UniProt P24941); test: CDK-2 kinase activity with histone H1 substrate (selectivity); format: biochemical; conditions: final concentration of 2 mM, FIG. 9
Protocol: The effect of GSC-4, GSC-5 and GSC-7 (100 and 200 μM) on other protein kinases was tested by incubating CDK-2 (1 unit) with a reaction mixture similar to that described hereinabove and containing histone H1 substrate (5 μg). The reactions were boiled with SDS sample buffer, separated on gel electrophoresis and autoradiographed.
The selectivity of the novel compounds towards GSK-3 was measured by evaluating the inhibition of CDK-2, a kinase closely related to GSK-3. Thus, CDK-2 activity was assayed in the presence of ^32P[γ-ATP] and histone H1 as a substrate. GSC-4, GSC-5 and GSC-7 were added at a final concentration of 2 mM.

[2] = molecular target: T1, recombinant rabbit GSK-3β; test: In vitro GSK-3 inhibition assay with p9CREB peptide substrate; format: biochemical
Protocol: as §1
as §2, with “In still” for “In”, “additional” for “additional inhibition”, “GSC-4, GSC-5, GSC-6,” for “GSC-4,”, “GSC-7” for “GSC-21”, “p9CREB” for “PGS-1”, “FIGS. 7a and 7b,” for “FIG. 6,”
The kinetic nature of the inhibitors was studied by measuring the initial velocity as a function of the substrate concentration at several inhibitor concentrations. Lineweaver-Burk plots of the GSK-3 inhibition by these inhibitors confirmed the assumption that these are substrate-competitive inhibitors (data not shown). FIG. 8 presents the Lineweaver-Burk plot of the GSK-3 inhibition by gsc-7, as an exemplary inhibitor, represented by phosphate incorporation into p9CREB peptide substrate (CPM). […] Each point is a mean of duplicated sample.
The ability of GSK-3 to phosphorylate p9CREB peptide substrate was measured in the presence of indicated concentrations of MP molecules, using the protocol described hereinabove in Example 3. The results, presented in FIG. 19, represent the percentage of GSK-3 activity in control incubation in which inhibitors were omitted. Results are mean of 2 independent experiments±SEM, where each point was assayed in duplicate.

Mice adipocytes = test: Glucose uptake in isolated adipocytes; format: cell-based; conditions: mouse primary adipocytes, 2.5 hours
Protocol: Glucose uptake in isolated adipocytes: Mice adipocytes were isolated from epididymal fat pad by digestion with 0.8 mg/ml collagenase (Worthington Biochemical) as described previously (Lawrence et al., 1977). Digested fat pads were passed through nylon mesh and cells were washed 3 times with Krebs-bicarbonate buffer (pH=7.4) containing 1% bovine serum albumin (Fraction V, Boehringer Mannheim, Germany), 10 mM HEPES (pH=7.3), 5 mM glucose and 200 nM adenosine. Cells were incubated with GSC-4 and GSC-21 at indicated concentrations for 2.5 hours, followed by addition of 2-deoxy [^3H] glucose (0.5 μci/vial) for 10 minutes. The assay was terminated by centrifugation of cells through dinonylphthalate (ICN, USA). ^3H was thereafter quantitated by liquid scintillation analyzer (Packard). Nonspecific uptake of 2-deoxy-[^3H] glucose was determined by the addition of cytochalasin B (50 μM) 30 minutes prior to the addition of radioactive material.
Glucose Uptake: The ability of the newly designed compounds GSC-4 and GSC-21 to promote glucose uptake was tested in mouse primary adipocytes as described hereinabove. The relative [^3H] 2-deoxy glucose incorporation observed in non-treated adipocytes was normalized to 1 unit and the values obtained for [^3H] 2-deoxy glucose in adipocytes treated with GSC-4 or GSC-21 are presented as fold activation over cells treated with the peptide control, and are the mean of 6 independent experiments±SEM, where each point was assayed in triplicate.

glycogen synthase = test: Activation of glycogen synthase in C2C12 cells; format: cell-based; conditions: 2.5 hours, FIG. 10
Protocol: Activation of glycogen synthase by GSK-3 inhibitors: Activation of glycogen synthase can serve as a good marker for inhibition of GSK-3. […] Thus, activation of glycogen synthase by GSC-5 and GSC-7 was tested in C2C12 myotubes. C2C12 cells were treated with GSC-5 and GSC-7 for 2.5 hours at indicated concentrations and lysate supernatants were thereafter assayed for glycogen synthase activity. The activity of glycogen synthase in cells treated with vehicle DMSO (0.1% DMSO) was normalized to 1 unit and the values for glycogen synthase activity observed in cells treated with GSK-3 inhibitors are presented as fold stimulation over the cells treated with vehicle […].
Activation of glycogen synthase by GSK-3 inhibitors: Activation of glycogen synthase activity in C2C12 cells treated with GSC-5 and GSC-7 was assayed as described hereinabove. The activity of glycogen synthase in cells treated with vehicle DMSO (0.1% DMSO) was normalized to 1 unit and the values for glycogen synthase activity observed in cells treated with GSK-3 (GS4 (hollow circles) GS6 (filled circles) are presented as fold stimulation over the cells treated with vehicle 0.1% HCL.

GSK-3 = GSK-3 (Oryctolagus cuniculus, UniProt A0A5F9DUX8); test: Time course analyses of peptide phosphorylation by GSK-3; format: biochemical
[3] = MP molecules, p9CREB peptide substrate, FIG. 19

T1 sequence (G1T8E2 1-432): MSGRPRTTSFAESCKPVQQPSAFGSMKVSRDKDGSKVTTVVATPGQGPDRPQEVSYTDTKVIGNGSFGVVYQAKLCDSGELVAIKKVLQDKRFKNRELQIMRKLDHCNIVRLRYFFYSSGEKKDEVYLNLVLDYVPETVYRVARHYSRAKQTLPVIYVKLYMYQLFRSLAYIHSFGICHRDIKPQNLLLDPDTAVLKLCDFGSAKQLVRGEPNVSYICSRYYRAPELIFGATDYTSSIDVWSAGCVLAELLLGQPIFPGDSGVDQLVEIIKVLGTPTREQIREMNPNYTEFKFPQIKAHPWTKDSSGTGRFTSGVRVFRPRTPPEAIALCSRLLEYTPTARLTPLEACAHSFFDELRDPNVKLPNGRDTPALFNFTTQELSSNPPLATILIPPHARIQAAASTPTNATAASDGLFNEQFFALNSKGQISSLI
Sequence of GSK-3 (A0A5F9DUX8 entry or part of it): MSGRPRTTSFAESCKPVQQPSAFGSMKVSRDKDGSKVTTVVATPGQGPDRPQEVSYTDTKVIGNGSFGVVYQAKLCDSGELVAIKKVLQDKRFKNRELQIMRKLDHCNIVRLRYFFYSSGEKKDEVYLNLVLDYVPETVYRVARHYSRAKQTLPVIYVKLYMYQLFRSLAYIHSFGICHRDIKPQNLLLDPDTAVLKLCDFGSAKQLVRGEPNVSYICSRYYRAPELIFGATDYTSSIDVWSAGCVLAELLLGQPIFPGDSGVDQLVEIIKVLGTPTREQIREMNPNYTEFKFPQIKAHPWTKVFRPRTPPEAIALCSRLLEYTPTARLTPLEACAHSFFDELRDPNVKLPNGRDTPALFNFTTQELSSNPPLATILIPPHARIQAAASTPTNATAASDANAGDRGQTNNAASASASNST

- GSK-3 inhibition activity [1]: exerted an inhibition activity
Molecule: Cc1ccc(COP(=O)(O)O)cc1 [GSC-2, p-methyl benzyl phosphate]

Molecule: N=C(N)Nc1cccc(COP(=O)(O)O)c1 [GSC-4, 3-guanidinobenzyl phosphate]
- Inhibition of histone H1 phosphorylation by CDK-2 (CDK-2): no inhibition of histone H1 phosphorylation was observed
- GSK-3 inhibition activity (ranking) ([1]; PGS-1 peptide substrate, FIG. 6): most active compounds
- IC50 ([2]; p9CREB peptide substrate, FIGS. 7a-b, most active compounds): 500 µM
- Glucose uptake ([3H] 2-deoxy glucose incorporation), fold activation (Mice adipocytes; 10 μM): ~2 fold

Molecule: N=C(N)NCc1cccc(COP(=O)(O)O)c1 [GSC-5, 3-(guanidinomethy)benzyl phosphate]
- Inhibition of histone H1 phosphorylation by CDK-2 (CDK-2): no inhibition of histone H1 phosphorylation was observed
- Glycogen synthase activity, fold stimulation over vehicle (glycogen synthase): 1.5 fold

- IC50 [2]: 500 µM
- Kinetic nature of inhibition (Lineweaver-Burk plot) ([2]; phosphate incorporation into p9CREB, FIG. 8): competitive specific inhibitor
Molecule: N=C(N)Nc1cc(COP(=O)(O)O)cc(NC(=N)N)c1 [GSC-7, 3,5-bisguanidino benzyl phosphate]
- Inhibition of histone H1 phosphorylation by CDK-2 (CDK-2): no inhibition of histone H1 phosphorylation was observed
- Glycogen synthase activity, fold stimulation over vehicle (glycogen synthase): 1.8 fold

Molecule: NCCc1cc(CCN)cc(COP(=O)(O)O)c1 [GSC-21, 3,5-bis(2-aminoethyl)benzyl phosphate]
- Glucose uptake ([3H] 2-deoxy glucose incorporation), fold activation (Mice adipocytes; 0.5 μM): 1.7 fold
- Glucose uptake ([3H] 2-deoxy glucose incorporation), fold activation (Mice adipocytes; 5 μM): 2.5 fold

- IC50 [2, 3]: ~1000 µM
Molecule: N=C(N)Nc1cccc(-c2cn(-c3cccc(COP(=O)(O)O)c3)nn2)c1 [MP-1, 3-(4-(3-guanidinophenyl)-1,2,3-triazol-1-yl)benzyl phosphoric acid hydrochloride]

- IC50 [2, 3]: ~1000 µM
Molecule: N=C(N)Nc1ccc(-c2cn(-c3cccc(COP(=O)(O)O)c3)nn2)cc1 [MP-4, 3-(4-(4-guanidinophenyl)-1,2,3-triazol-1-yl)benzyl phosphoric acid hydrochloride]

Molecule: O=P(O)(O)Oc1ccccc1 [phenyl phosphate, reference compound]
- GSK-3 inhibition activity [1]: exerted an inhibition activity

- GSK-3 inhibition activity [1]: exerted an inhibition activity
Molecule: Cc1ncc(COP(=O)(O)O)c(C=O)c1O [pyridoxal phosphate, reference compound]

- Phosphorylation of peptide by GSK-3 (substrate) (GSK-3): completely failed to be phosphorylated
Molecule: ILSRRPEYR [9ECREB]

- Phosphorylation of peptide by GSK-3 (substrate) (GSK-3): completely failed to be phosphorylated
Molecule: ILSRRPSYR [9CREB]
